Measured values: article PMC2929565 (Toxicology and applied pharmacology, 2010)
Where two headings read alike, the source gives them in different places. Marks after values point to notes of the source that are not given here.

What was measured:
[1] = target: rat Nav1.6 sodium channels (Rattus norvegicus, UniProt O88420); type: cell-based; settings: for Steady-state inactivation K (slope factor) / Activation K (slope factor) / Activation V0.5 (midpoint potential) / Steady-state inactivation V0.5 (midpoint potential) / Tail current decay time constant, fast component (τ1) / Peak current inactivation time constant, fast component (τfast) / Peak current inactivation time constant, slow component (τslow): pyrethroid 100 μM; for Steady-state inactivation K (slope factor) / Activation K (slope factor) / Activation V0.5 (midpoint potential) / Steady-state inactivation V0.5 (midpoint potential): Boltzmann fit; for Steady-state inactivation K (slope factor): control 7.02 ± 0.13; for Activation K (slope factor): control 8.02 ± 0.23; for Activation V0.5 (midpoint potential): control −17.0 ± 0.4; for Steady-state inactivation V0.5 (midpoint potential): control −50.3 ± 0.3; for Tail current decay time constant, fast component (τ1) / Peak current inactivation time constant, fast component (τfast) / Peak current inactivation time constant, slow component (τslow): mean ± SE; for Peak current inactivation time constant, fast component (τfast): control 1.32 ± 0.03; for Peak current inactivation time constant, slow component (τslow): control 10.93 ± 2.25; for Effect of repetitive depolarization on modification (words): trains of high-frequency depolarizing prepulses
rat Nav1.6 sodium channels, sequence (O88420 whole entry): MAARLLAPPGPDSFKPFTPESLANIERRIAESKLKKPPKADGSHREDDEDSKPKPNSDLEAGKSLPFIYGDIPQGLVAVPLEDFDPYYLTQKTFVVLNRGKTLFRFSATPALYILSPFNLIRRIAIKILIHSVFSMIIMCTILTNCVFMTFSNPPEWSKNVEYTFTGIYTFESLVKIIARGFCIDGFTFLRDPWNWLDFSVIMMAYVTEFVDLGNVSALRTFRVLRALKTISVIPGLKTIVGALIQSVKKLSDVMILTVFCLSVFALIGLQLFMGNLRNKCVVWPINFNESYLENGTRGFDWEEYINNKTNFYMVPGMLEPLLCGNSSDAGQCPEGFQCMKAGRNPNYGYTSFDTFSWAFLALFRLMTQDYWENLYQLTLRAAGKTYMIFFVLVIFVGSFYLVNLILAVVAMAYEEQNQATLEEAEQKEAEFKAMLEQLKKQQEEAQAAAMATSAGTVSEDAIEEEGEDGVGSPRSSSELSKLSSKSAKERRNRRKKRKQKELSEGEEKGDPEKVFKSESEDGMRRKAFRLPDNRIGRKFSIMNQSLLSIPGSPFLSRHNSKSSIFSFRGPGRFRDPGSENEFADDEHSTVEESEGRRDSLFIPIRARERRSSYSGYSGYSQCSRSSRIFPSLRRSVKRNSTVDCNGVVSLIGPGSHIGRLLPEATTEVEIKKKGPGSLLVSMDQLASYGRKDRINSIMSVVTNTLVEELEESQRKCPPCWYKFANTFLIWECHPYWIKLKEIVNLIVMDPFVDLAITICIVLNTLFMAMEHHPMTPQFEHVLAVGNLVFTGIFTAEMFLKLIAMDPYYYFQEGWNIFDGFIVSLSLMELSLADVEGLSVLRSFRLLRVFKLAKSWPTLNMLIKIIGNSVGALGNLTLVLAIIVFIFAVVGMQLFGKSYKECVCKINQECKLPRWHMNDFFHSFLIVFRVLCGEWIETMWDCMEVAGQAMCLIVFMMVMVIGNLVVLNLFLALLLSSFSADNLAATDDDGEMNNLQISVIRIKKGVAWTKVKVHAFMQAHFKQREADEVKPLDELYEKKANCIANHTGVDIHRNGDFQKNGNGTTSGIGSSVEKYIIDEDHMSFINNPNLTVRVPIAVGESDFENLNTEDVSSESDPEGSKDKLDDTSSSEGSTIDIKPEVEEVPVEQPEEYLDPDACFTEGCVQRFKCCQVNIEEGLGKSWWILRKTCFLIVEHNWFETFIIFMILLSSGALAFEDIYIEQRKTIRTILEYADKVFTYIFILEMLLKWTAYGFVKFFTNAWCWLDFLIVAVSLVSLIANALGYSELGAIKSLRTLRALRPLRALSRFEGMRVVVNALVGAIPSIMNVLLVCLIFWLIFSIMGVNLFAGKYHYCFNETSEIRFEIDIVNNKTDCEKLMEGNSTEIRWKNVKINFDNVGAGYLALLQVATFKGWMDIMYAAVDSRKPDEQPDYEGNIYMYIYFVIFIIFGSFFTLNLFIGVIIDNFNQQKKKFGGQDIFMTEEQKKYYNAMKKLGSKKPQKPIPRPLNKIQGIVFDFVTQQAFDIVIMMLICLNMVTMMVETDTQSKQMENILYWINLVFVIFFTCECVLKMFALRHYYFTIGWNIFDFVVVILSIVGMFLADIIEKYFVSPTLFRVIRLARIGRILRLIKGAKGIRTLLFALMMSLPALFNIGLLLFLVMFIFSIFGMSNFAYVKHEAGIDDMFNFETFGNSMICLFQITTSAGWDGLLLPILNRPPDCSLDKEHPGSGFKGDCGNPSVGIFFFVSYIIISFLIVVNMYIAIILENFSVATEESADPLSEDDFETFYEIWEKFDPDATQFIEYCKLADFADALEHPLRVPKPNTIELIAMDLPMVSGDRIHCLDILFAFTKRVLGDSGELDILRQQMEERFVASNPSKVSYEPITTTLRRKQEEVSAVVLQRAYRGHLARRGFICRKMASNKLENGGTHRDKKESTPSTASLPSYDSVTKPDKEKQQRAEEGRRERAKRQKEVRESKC
rat Nav1.6 sodium channels, sequence (Q00954 19-218 partner): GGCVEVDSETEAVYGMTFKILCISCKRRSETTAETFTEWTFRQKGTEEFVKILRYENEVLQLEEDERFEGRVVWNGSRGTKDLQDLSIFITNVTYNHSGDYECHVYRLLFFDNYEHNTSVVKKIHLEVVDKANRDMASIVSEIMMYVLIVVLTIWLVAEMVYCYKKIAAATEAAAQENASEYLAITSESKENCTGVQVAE
rat Nav1.6 sodium channels, sequence (P54900 30-215 partner): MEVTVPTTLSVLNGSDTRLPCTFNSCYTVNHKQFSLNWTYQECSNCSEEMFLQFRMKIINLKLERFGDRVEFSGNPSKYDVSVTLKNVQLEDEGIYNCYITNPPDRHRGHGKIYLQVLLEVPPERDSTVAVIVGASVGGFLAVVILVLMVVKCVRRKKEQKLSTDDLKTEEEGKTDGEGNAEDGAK

[2] = target: rat Nav1.2 sodium channels (Rattus norvegicus, UniProt P04775, N209D); type: cell-based
rat Nav1.2 sodium channels, sequence (P04775 whole entry N209D): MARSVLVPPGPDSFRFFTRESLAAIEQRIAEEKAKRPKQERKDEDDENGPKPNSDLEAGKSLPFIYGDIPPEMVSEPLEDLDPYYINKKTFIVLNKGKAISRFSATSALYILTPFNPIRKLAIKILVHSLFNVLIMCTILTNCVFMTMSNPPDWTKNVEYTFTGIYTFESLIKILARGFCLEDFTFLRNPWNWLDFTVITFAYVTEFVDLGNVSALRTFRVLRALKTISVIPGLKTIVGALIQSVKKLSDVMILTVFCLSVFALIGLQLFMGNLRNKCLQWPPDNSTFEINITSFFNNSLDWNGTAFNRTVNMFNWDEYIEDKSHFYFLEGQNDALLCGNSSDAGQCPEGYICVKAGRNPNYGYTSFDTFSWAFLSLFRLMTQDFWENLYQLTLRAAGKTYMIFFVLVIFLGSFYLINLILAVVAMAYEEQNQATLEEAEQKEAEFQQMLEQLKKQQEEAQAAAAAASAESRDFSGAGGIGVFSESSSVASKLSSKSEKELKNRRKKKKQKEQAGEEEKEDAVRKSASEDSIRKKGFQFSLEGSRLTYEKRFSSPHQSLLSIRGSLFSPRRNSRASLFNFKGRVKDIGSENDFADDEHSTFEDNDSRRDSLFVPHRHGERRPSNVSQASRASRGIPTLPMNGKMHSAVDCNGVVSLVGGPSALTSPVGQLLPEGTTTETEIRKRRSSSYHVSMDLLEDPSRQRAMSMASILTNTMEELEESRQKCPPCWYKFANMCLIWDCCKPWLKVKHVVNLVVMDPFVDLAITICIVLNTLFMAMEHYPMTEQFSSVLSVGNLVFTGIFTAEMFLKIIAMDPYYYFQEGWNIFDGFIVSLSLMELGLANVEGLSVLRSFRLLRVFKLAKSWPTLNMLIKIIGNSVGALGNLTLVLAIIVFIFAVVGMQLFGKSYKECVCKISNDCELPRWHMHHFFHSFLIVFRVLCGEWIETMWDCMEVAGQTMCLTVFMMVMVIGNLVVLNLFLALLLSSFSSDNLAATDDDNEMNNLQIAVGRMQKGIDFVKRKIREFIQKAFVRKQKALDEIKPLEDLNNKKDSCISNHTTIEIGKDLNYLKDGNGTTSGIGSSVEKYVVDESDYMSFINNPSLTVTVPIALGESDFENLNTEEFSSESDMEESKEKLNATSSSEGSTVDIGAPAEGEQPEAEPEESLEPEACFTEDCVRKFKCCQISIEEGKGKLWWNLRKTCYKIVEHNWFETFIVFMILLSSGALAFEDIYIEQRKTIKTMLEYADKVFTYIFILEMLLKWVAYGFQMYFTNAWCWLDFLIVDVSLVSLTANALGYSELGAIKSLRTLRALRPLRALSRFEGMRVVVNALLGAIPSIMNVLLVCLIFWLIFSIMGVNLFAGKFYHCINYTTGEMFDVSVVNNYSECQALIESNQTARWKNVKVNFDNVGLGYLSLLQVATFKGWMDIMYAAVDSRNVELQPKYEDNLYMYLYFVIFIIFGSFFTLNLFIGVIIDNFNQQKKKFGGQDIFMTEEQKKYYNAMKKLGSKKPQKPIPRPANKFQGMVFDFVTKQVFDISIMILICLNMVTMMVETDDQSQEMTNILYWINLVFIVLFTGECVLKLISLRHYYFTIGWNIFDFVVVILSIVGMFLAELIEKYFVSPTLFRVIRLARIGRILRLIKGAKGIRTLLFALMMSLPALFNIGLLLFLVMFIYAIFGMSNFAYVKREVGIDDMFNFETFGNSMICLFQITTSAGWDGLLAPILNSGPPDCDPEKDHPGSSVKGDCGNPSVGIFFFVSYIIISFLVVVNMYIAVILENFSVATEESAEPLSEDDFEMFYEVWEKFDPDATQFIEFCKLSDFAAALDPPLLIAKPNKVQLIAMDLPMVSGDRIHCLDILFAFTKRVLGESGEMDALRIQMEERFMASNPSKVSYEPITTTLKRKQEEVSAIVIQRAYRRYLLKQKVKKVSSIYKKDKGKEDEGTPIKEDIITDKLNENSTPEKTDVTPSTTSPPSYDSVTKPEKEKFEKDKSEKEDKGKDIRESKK
rat Nav1.2 sodium channels, sequence (Q00954 19-218 partner): as the sequence (Q00954 19-218 partner) above
rat Nav1.2 sodium channels, sequence (P54900 30-215 partner): as the sequence (P54900 30-215 partner) above

rats [3] = test: Acute oral toxicity to rats; type: in vivo, rat; settings: ref Soderlund et al., 2002
rats [4] = settings: rat, in vivo; cited from earlier work
[5] = 0 prepulses, Hill fit, mean ± SE of 5
[6] = 100 prepulses, Hill fit, mean ± SE of 5
[7] = EC10 0 prepulses vs 100 prepulses

Cc1c(F)c(F)c(COC(=O)[C@@H]2[C@H](/C=C(\Cl)C(F)(F)F)C2(C)C)c(F)c1F (racemic) [tefluthrin]
EC10, resting modification [1, 5]: 14.1 ± 3.7 µM
Prepulse number up to which extent of modification increased, then stable ([1]; 100 μM): 80 prepulses
Tail current τ1 relative to S-bioallethrin-induced currents ([1]; 100 μM): approximately 4 fold
Increase of extent of channel modification by repetitive depolarization ([1]; 100 μM, 100 prepulses vs 0 prepulses): 2.8 fold
Potency relative to deltamethrin as use-dependent modifier (EC10) ([1]; 100 prepulses): ~ 10 fold
EC10, use-dependent modification [1, 6]: 0.95 ± 0.22 µM
Increase of sensitivity (EC10) to the compound by repetitive depolarization [1, 7]: ~ 15 fold
Sensitivity of Nav1.6 isoform relative to Nav1.2 isoform (concentration–effect data) ([1]; abstract summary, state not specified): at least 15 fold
Steady-state inactivation K (slope factor) [1]: 6.03 ± 0.10 ^b
Activation K (slope factor) [1]: 8.06 ± 0.21
Activation V0.5 (midpoint potential) [1]: −17.0 ± 1.0 mV
Steady-state inactivation V0.5 (midpoint potential) [1]: −52.3 ± 1.2 mV
Tail current decay time constant, fast component (τ1) [1]: 9.8 ± 0.6 ms
Peak current inactivation time constant, fast component (τfast) [1]: 1.12 ± 0.04 ^d ms
Peak current inactivation time constant, slow component (τslow) [1]: 19.00 ± 0.64 ^d ms
EC10, resting modification [2, 5]: 222 ± 82 µM
EC10, use-dependent modification [2, 6]: 16.9 ± 5.5 µM
Increase of sensitivity (EC10) to the compound by repetitive depolarization [2, 7]: approximately 13 fold
Acute oral LD50 lower than that of deltamethrin (rats [3]): approximately 5 fold

C=CCC1=C(C)[C@@H](OC(=O)[C@@H]2[C@@H](C=C(C)C)C2(C)C)CC1=O [S-bioallethrin]
Increase of inactivation-resistant current relative to control ([1]; 100 μM, prepulses above 0 mV, control approximately 2% of total current): approximately five-fold
Effect of repetitive depolarization on modification (words) ([1]; 100 μM): decreased slightly
Effect of repetitive depolarization on modification (words) ([1]; 100 μM, listed as S-Bioallethrin): no further enhancement of modification
Steady-state inactivation K (slope factor) [1]: 6.24 ± 0.23
Activation K (slope factor) [1]: 7.78 ± 0.52
Activation V0.5 (midpoint potential) [1]: −19.2 ± 1.1 mV
Steady-state inactivation V0.5 (midpoint potential) [1]: −52.8 ± 1.1 mV
Tail current decay time constant, fast component (τ1) [1]: 2.3 ± 0.4 ms
Peak current inactivation time constant, fast component (τfast) [1]: 2.11 ± 0.12 ^d ms
Peak current inactivation time constant, slow component (τslow) [1]: 7.30 ± 0.35 ^d ms

CC1(C)[C@H](C(=O)O[C@H](C#N)c2cccc(Oc3ccccc3)c2)[C@@H]1C=C(Br)Br [deltamethrin]
Acute oral LD50 (rats [4]): 95 mg/kg
